# Results published in ChEMBL document CHEMBL1139234, “Optimization of monocarboxylate transporter 1 blockers through analysis and modulation of atropisomer interconversion properties” (J Med Chem, 2007).
# Assay: Solubility of the compound
# Assay type: physicochemical
# Conditions: not given
row,solubility [µg/mL],Compound
1,2900,Cc1n[nH]c(C)c1Cc1sc2c(c1C(=O)N1C[C@H](O)CO1)c(=O)n(C)c(=O)n2CC(C)C
2,500,CC(C)Cn1c(=O)n(C)c(=O)c2c(C(=O)N3CC[C@@H](O)C3)c(Cc3ccnc4ccccc34)sc21

# Assay: physchem
# Conditions: octanol/water
row,Compound,logD
1,CC(C)Cn1c(=O)n(C)c(=O)c2c(C(=O)N3C[C@H](O)CO3)c(Cc3ccccc3C(F)(F)F)sc21,3.2
2,CON(C)C(=O)c1c(Cn2c(C)nc(Cl)c2Cl)sc2c1c(=O)n(C)c(=O)n2CC(C)C,2.3
3,CC(C)Cn1c(=O)n(C)c(=O)c2c(C(=O)N3CC[C@@H](O)C3)c(Cc3ccnc4ccc(F)cc34)sc21,2
4,CC(C)n1c(=O)n(C)c(=O)c2c(C(=O)N3CCS(=O)(=O)C3)c(Cc3ccccc3C(F)(F)F)sc21,2.6
5,CC(C)Cn1c(=O)n(C)c(=O)c2c(C(=O)N3CC[C@@H](O)C3)c(Oc3cccc4ccccc34)sc21,2.9

# Other lines, results leading:
row,logD,Compound
1,2,CC(C)Cn1c(=O)n(C)c(=O)c2c(C(=O)N3C[C@H](O)CO3)c(Cc3c[nH]c4ncccc34)sc21
2,1.1,Cc1n[nH]c(C)c1Cc1sc2c(c1C(=O)N1C[C@H](O)CO1)c(=O)n(C)c(=O)n2CC(C)C
3,1.8,CNc1nc2ccccc2n1Cc1sc2c(c1C(=O)N1C[C@H](O)CO1)c(=O)n(C)c(=O)n2CC(C)C
